According to PMC10252594 (Cancers, 2023):
Values joined by “and” are separate entries in the source; they are usually repeats but may differ in a detail not shown here. Identical values can stand only once.

Tests used:
LAPC-4 xenografts = assay: Fatty acid determination (GC-FID) in LAPC-4 xenograft experiment; assay type: in vivo, mice; conditions: LAPC-4 tumor, 10 mg/kg PO
Experimental: […] The fatty acid profile was next determined by gas chromatography (GC), coupled with a flame ionization detector (FID), using phosphatidylcholine C21:0 (Avanti Polar Lipids) as an internal standard. The GC model 5890 was from Agilent Technologies (Mississauga, ON, Canada). The capillary column used was a HP-88 (100 m × 0.25 mm, […], Agilent Technologies), and the carrier gas was helium at 1.5 mL/min. A total of 56 fatty acids were identified according to their retention time, using fatty acid mixtures as standards.

DU-145 = test system: DU-145; set-up: method as in PMID 34681843; conditions: DU-145, AR negative, three days, MTS; cited from earlier work

C#C[C@]1(O)CC[C@H]2[C@@H]3CCc4cc(OC)c(N5CCN(C(=O)[C@@H]6CCCN6C(=O)c6ccc7ccccc7n6)CC5)cc4[C@H]3CC[C@@]21C [RM-581]
Dimethoxyoctadecenoic acid (9c) w9 18:1, FA RM-581 (LAPC-4 xenografts; 28 days, Table S1): 0.07 mg/g | Dimethoxyoctadecenoic acid (9c) w9 18:1, FA RM-581 % of total (LAPC-4 xenografts; 28 days, Table S1): 0.29% | Elaidic acid (9t) w9 18:1, FA RM-581 (LAPC-4 xenografts; 28 days, Table S1): 0 mg/g | Elaidic acid (9t) w9 18:1, FA RM-581 % of total (LAPC-4 xenografts; 28 days, Table S1): 0% | Erucic acid w9 22:1, FA RM-581 (LAPC-4 xenografts; 28 days, Table S1): 0.025 mg/g | Erucic acid w9 22:1, FA RM-581 % of total (LAPC-4 xenografts; 28 days, Table S1): 0.10% | FA (1c) w14 15:1, FA RM-581 (LAPC-4 xenografts; 28 days, Table S1): 0 mg/g | FA (1c) w14 15:1, FA RM-581 % of total (LAPC-4 xenografts; 28 days, Table S1): 0% | FA (5c) w10 15:1, FA RM-581 (LAPC-4 xenografts; 28 days, Table S1): 0 mg/g | FA (5c) w10 15:1, FA RM-581 % of total (LAPC-4 xenografts; 28 days, Table S1): 0% | FA (5t) w10 15:1, FA RM-581 (LAPC-4 xenografts; 28 days, Table S1): 0 mg/g | FA (5t) w10 15:1, FA RM-581 % of total (LAPC-4 xenografts; 28 days, Table S1): 0% | FA (7c) w10 17:1, FA RM-581 (LAPC-4 xenografts; 28 days, Table S1): 0.05 mg/g | FA (7c) w10 17:1, FA RM-581 % of total (LAPC-4 xenografts; 28 days, Table S1): 0.20% | FA (7t) w10 17:1, FA RM-581 (LAPC-4 xenografts; 28 days, Table S1): 0.02 mg/g | FA (7t) w10 17:1, FA RM-581 % of total (LAPC-4 xenografts; 28 days, Table S1): 0.09% | FA (8c11c14c17c) w3 20:4, FA RM-581 (LAPC-4 xenografts; 28 days, Table S1): 0.04 mg/g | FA (8c11c14c17c) w3 20:4, FA RM-581 % of total (LAPC-4 xenografts; 28 days, Table S1): 0.16% | FA (8c) w12 20:1, FA RM-581 (LAPC-4 xenografts; 28 days, Table S1): 0 mg/g | FA (8c) w12 20:1, FA RM-581 % of total (LAPC-4 xenografts; 28 days, Table S1): 0% | FA (9c12t) w6 18:2, FA RM-581 (LAPC-4 xenografts; 28 days, Table S1): 0.02 mg/g | FA (9c12t) w6 18:2, FA RM-581 % of total (LAPC-4 xenografts; 28 days, Table S1): 0.09% | FA (9t12c) w6 18:2, FA RM-581 (LAPC-4 xenografts; 28 days, Table S1): 0 mg/g | FA (9t12c) w6 18:2, FA RM-581 % of total (LAPC-4 xenografts; 28 days, Table S1): 0% | FA (9t12t15t) w3 18:3, FA RM-581 (LAPC-4 xenografts; 28 days, Table S1): 0.01 mg/g | FA (9t12t15t) w3 18:3, FA RM-581 % of total (LAPC-4 xenografts; 28 days, Table S1): 0.03% | FA (9t) w5 14:1, FA RM-581 (LAPC-4 xenografts; 28 days, Table S1): 0.01 mg/g | FA (9t) w5 14:1, FA RM-581 % of total (LAPC-4 xenografts; 28 days, Table S1): 0.03% | FA (9t) w13 22:1, FA RM-581 (LAPC-4 xenografts; 28 days, Table S1): 0 mg/g | FA (9t) w13 22:1, FA RM-581 % of total (LAPC-4 xenografts; 28 days, Table S1): 0% | FA (11c14c17c) w3 20:3, FA RM-581 (LAPC-4 xenografts; 28 days, Table S1): 0 mg/g | FA (11c14c17c) w3 20:3, FA RM-581 % of total (LAPC-4 xenografts; 28 days, Table S1): 0% | FA (11c14c) w6 20:2, FA RM-581 (LAPC-4 xenografts; 28 days, Table S1): 0.08 mg/g | FA (11c14c) w6 20:2, FA RM-581 % of total (LAPC-4 xenografts; 28 days, Table S1): 0.34% | FA (12c) w6 18:1, FA RM-581 (LAPC-4 xenografts; 28 days, Table S1): 0 mg/g | FA (12c) w6 18:1, FA RM-581 % of total (LAPC-4 xenografts; 28 days, Table S1): 0% | FA (13c16c19c) w3 22:3, FA RM-581 (LAPC-4 xenografts; 28 days, Table S1): 0 mg/g | FA (13c16c19c) w3 22:3, FA RM-581 % of total (LAPC-4 xenografts; 28 days, Table S1): 0% | FA (13c16c) w6 22:2, FA RM-581 (LAPC-4 xenografts; 28 days, Table S1): 0.01 mg/g | FA (13c16c) w6 22:2, FA RM-581 % of total (LAPC-4 xenografts; 28 days, Table S1): 0.04% | FA (13c) w5 18:1, FA RM-581 (LAPC-4 xenografts; 28 days, Table S1): 0.02 mg/g | FA (13c) w5 18:1, FA RM-581 % of total (LAPC-4 xenografts; 28 days, Table S1): 0.07% | Gamma-linolenic acid (6c9c12c) w6 18:3, FA RM-581 (LAPC-4 xenografts; 28 days, Table S1): 0.05 mg/g | Gamma-linolenic acid (6c9c12c) w6 18:3, FA RM-581 % of total (LAPC-4 xenografts; 28 days, Table S1): 0.19% | Gondoic acid (11c) w9 20:1, FA RM-581 (LAPC-4 xenografts; 28 days, Table S1): 0.08 mg/g | Gondoic acid (11c) w9 20:1, FA RM-581 % of total (LAPC-4 xenografts; 28 days, Table S1): 0.32% | Isobranched 17:0, FA RM-581 (LAPC-4 xenografts; 28 days, Table S1): 0.02 mg/g | Isobranched 17:0, FA RM-581 % of total (LAPC-4 xenografts; 28 days, Table S1): 0.08% | Lauric acid 12:0, FA RM-581 (LAPC-4 xenografts; 28 days, Table S1): 0.02 mg/g | Lauric acid 12:0, FA RM-581 % of total (LAPC-4 xenografts; 28 days, Table S1): 0.10% | Linolelaidic acid (9t12t) w6 18:2, FA RM-581 (LAPC-4 xenografts; 28 days, Table S1): 0.03 mg/g | Linolelaidic acid (9t12t) w6 18:2, FA RM-581 % of total (LAPC-4 xenografts; 28 days, Table S1): 0.14% | Myristoleic acid (9c) w5 14:1, FA RM-581 (LAPC-4 xenografts; 28 days, Table S1): 0.02 mg/g | Myristoleic acid (9c) w5 14:1, FA RM-581 % of total (LAPC-4 xenografts; 28 days, Table S1): 0.06% | Palmitelaidic acid (9t) w1 16:1, FA RM-581 (LAPC-4 xenografts; 28 days, Table S1): 0 mg/g | Palmitelaidic acid (9t) w1 16:1, FA RM-581 % of total (LAPC-4 xenografts; 28 days, Table S1): 0% | Pentadecanoic acid 15:0, FA RM-581 (LAPC-4 xenografts; 28 days, Table S1): 0.04 mg/g | Pentadecanoic acid 15:0, FA RM-581 % of total (LAPC-4 xenografts; 28 days, Table S1): 0.17% | Petroselaidic acid (6t) w12 18:1, FA RM-581 (LAPC-4 xenografts; 28 days, Table S1): 0 mg/g | Petroselaidic acid (6t) w12 18:1, FA RM-581 % of total (LAPC-4 xenografts; 28 days, Table S1): 0% | Petroselinic acid (7c-n11/6c-n12) w11/12 18:1, FA RM-581 (LAPC-4 xenografts; 28 days, Table S1): 0 mg/g | Petroselinic acid (7c-n11/6c-n12) w11/12 18:1, FA RM-581 % of total (LAPC-4 xenografts; 28 days, Table S1): 0% | Stearidonic acid (6c9c12c15c) w3 18:4, FA RM-581 (LAPC-4 xenografts; 28 days, Table S1): 0 mg/g | Stearidonic acid (6c9c12c15c) w3 18:4, FA RM-581 % of total (LAPC-4 xenografts; 28 days, Table S1): 0% | Timnodonic acid (5c8c11c14c17c) w3 20:5, FA RM-581 (LAPC-4 xenografts; 28 days, Table S1): 0.025 mg/g | Timnodonic acid (5c8c11c14c17c) w3 20:5, FA RM-581 % of total (LAPC-4 xenografts; 28 days, Table S1): 0.10% | Trans-vaccenic acid (11t) w7 18:1, FA RM-581 (LAPC-4 xenografts; 28 days, Table S1): 0.03 mg/g | Trans-vaccenic acid (11t) w7 18:1, FA RM-581 % of total (LAPC-4 xenografts; 28 days, Table S1): 0.13% | increase in linoleic acid level inside the tumors (LAPC-4 xenografts; 10 mg/kg): 1.59 mg/g and ~ 5.7 mM | increase in oleic acid level inside the tumors (LAPC-4 xenografts; 10 mg/kg): 1.26 mg/g and ~ 4.5 mM | IC50 (DU-145): 4.4 µM
